From ChEMBL document CHEMBL1148501, “Synthesis of pyrazoles and isoxazoles as potent alpha(v)beta3 receptor antagonists” (Bioorg Med Chem Lett, 2006)

Key:
[1] = in vivo; details: rat
[2] = in vivo; details: rat, po

- half-life [1]: 294 min
- bioavailability [2]: 95%
SMILES: Cn1nc(CC(CC(=O)O)c2ccc3c(c2)OCO3)cc1OCCc1ccc2c(n1)NCCC2 (configuration not stated)
